Data from patent publication US12319681B2, “Tripartite androgen receptor eliminators, methods and uses thereof” (SPG Therapeutics, Inc., priority 2017, dated 2025).
Like-named read-outs stand apart in the source and are kept apart here.

Key:
[1] = tested on: normal Human Adult Primary Epidermal Keratinocyte cell line; details: 72 h
Experimental: For the Keratinocyte assay, normal Human Adult Primary Epidermal Keratinocyte cell line (ATCC PCS-200-011) was maintained in EPIUFE® Medium, with 60 μM calcium (Thermo MEPISOOCA) supplemented with Human Keratinocyte Growth Supplement, 100 U/mL penicillin, and 100 μg/mL streptomycin at 37° C. with 5% C02. For experiments, cells were seeded at 70% confluence per well in 100 μL of medium in 96-well plates. Reverse transfection was done on the cells using Lipofectamine 3000 (Life Technologies) with plasmids according to manufacturer's instructions. Briefly, 0.3 μL transfection reagent per 100 ng DNA were incubated with P3000 reagent and Opti-Mem prior to addition of cells. After 16 hours, medium was removed and replaced with dosing medium.
Each ARE tested was prepared in DMSO. Dosing medium was prepared at the time of treatment by serial diluting stock solution into medium. Ethanol concentrations in media never exceeded 0.1%. […] Negative control wells contained 100 L medium/well with 1 μL of ethanol/mL of medium and an appropriate amount of DMSO. […] Cells were incubated 72 hours at 37° C. without CO2.

androgen receptor (AR) [2] = biological target: androgen receptor (AR) (Homo sapiens, UniProt P10275); assay: MDA-kb2 Assay with 0.1 nM DHT (Example 13); type: cell-based
Experimental: To assess ARE-mediated inhibition, an AR luciferase assay was performed. After washing cells with 1×PBS, 20 μL lysis buffer (25 mM Tris/phosphate, 4 mM EGTA, 1% Triton, 10% glycerol, 2 mM DTT) was added per well, incubated for 5 minutes with gentle shaking and store at −80° C. On the day of assay, the plates were thawed to ambient temperature and 80 μL of assay buffer (25 mM glycylglycine, 15 mM MgCl2. 5 mM ATP, 0.1 mg/ml BSA) was added to each well. Plates are then processed on a microplate reader (POLARstar Omega) by injecting 100 μL of 1 mM D-luciferin per well, followed by chemiluminescence measurement of 3 seconds at onset of injection. Luciferase activity was determined, measured, and normalized to Relative Light Units (RLU). AR reporter gene activity reduction values were calculated as follows: AR reporter gene activity=1−(average signal (treatment group)/average signal (treatment group without drug).
To determine efficacy of a compound, a MDA-kb2 assay was performed as described in Example 10. The cells were treated with compounds for 24 hours prior to measurements of reporter gene activity. […] AR luciferase assay results were analyzed using GraphPad Prism using a four-parameter logistic curve equation. Bottom constraints were set at 1 (level of uninduced control.)

[3] = tested on: MDA-kb2 breast cancer cell; assay: MDA-kb2 cell viability in Example 13; type: cell-based
[4] = Solubility screening tests in 8 solvent systems; type: physicochemical
Experimental: Solubility screening tests were performed in 8 solvent systems: (1) Transcutol: Ethanol: Isopropyl myristate (IPM) 2:3:5 (v:v); (2) Transcutol: Ethanol 3:7 (v:v); (3) Ethanol: Propylene Glycol 1:1 (v:v); (4) Ethanol:H2O 7:3 (v:v); (5) IPM; (6) Ethanol:Tween 80: Cetyl Alcohol 90:5:5 (w:w); (7) CCT: Tween 80: Cetyl Alcohol 90:5:5 (w:w); and (8) CCT: Isopropanol 1:1 (v: v). […] One objective was to identify solvent systems for solution formulation at targeted API concentration of 1% by weight. Another objective was to identify solvents that are potentially good penetration enhancers and yet clinically viable. Since cetyl alcohol is solid, the solvent systems with them were prepared in weight ratios.

[5] = tested on: normal Human Adult Primary Epidermal Keratinocyte cell line; details: 24 h
Experimental: For the Keratinocyte assay, normal Human Adult Primary Epidermal Keratinocyte cell line (ATCC PCS-200-011) was maintained in EPIUFE® Medium, with 60 μM calcium (Thermo MEPISOOCA) supplemented with Human Keratinocyte Growth Supplement, 100 U/mL penicillin, and 100 μg/mL streptomycin at 37° C. with 5% C02. For experiments, cells were seeded at 70% confluence per well in 100 μL of medium in 96-well plates. […] After 16 hours, medium was removed and replaced with dosing medium.
A 5α-Androstan-17β-ol-3-one (DHT) stock solution was prepared at 1,000× in ethanol. […] Dosing medium was prepared at the time of treatment by serial diluting stock solution into medium. Ethanol concentrations in media never exceeded 0.1%. […] Negative control wells contained 100 μL medium/well with 1 μL of ethanol/mL of medium and an appropriate amount of DMSO. Each plate also contained 1.0 nM DHT with an ARE or without an ARE as a positive control. Cells were incubated 24 hours at 37° C. without CO2.
(§1) To assess for cell viability, cells were first visually examined under a phase-contrast microscope to record cell confluence, morphological changes, and presence of drug crystallization as well as to observe signs of cytotoxity such as, e.g., detachment, vacuolization, membrane degradation, or lack of phase brightness. After microscopic inspection, a Trypan Blue exclusion assay was performed to assess cell viability and cell number for each well. Each well was washed with 0.5 mL volume of PBS. 30 µL of Trypan Blue was added to each well for 5-10 minutes. Total cell number and total viable cell number will be counted from 1 number of fields per well, in triplicate.

androgen receptor (AR) [6] = biological target: T1, androgen receptor (AR) (Homo sapiens, UniProt P10275); assay: Keratinocyte AR Reporter Gene Assay with washout (sustained effects); type: cell-based; details: 7.0 μM for 24 hours
T1 construct: human keratinocytes transfected with an AR luciferase reporter gene; endogenous in cells; host or cells: normal human adult primary epidermal keratinocytes (ATCC PCS-200-011)
T1 sequence (P10275 1-920): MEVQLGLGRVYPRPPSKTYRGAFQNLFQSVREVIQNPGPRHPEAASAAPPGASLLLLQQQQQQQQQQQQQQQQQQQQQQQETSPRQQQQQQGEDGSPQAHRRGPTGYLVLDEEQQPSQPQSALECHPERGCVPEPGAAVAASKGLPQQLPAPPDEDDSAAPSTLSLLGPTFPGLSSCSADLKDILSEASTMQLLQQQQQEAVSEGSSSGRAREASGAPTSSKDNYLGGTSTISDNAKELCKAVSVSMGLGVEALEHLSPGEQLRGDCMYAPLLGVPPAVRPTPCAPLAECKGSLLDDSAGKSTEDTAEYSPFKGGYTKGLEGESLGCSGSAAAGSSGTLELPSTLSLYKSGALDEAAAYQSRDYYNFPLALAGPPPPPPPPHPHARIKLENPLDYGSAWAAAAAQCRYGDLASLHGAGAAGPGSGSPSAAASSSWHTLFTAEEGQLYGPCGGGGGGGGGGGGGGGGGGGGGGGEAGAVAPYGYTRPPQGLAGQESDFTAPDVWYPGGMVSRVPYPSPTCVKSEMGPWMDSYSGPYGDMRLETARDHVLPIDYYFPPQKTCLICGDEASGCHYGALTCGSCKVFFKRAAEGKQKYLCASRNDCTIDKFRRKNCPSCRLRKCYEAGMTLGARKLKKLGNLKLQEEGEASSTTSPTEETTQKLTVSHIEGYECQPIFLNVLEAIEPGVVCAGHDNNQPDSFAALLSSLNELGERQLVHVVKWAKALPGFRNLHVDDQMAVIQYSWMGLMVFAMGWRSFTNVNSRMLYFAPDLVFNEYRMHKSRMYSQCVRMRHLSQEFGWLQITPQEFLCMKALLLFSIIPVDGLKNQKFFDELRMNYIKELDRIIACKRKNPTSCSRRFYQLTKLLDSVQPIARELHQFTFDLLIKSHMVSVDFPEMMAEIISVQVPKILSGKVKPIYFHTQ
Experimental: Reporter gene activity was measured following two days or three days of additional cell culture in the absence of AR antagonists. AR reporter gene activity reduction was calculated as follows: 1−(average signal (treatment group)/(average signal (treatment group, without drug, same washout period).

[7] = tested on: MDA-kb2 mammary gland breast cancer cell line; details: human, 24 h
Experimental: For the MDA-kb2 assay, MDA-kb2 mammary gland breast cancer cell line was maintained in L-15 media (Gibco) supplemented with 10% FBS, 100 U/mL penicillin, 100 μg/mL streptomycin, and 0.25 μg/mL amphotericin B at 37° C., without CO2. For experiments, cells were plated at 1.0×10^4 cells (50% confluence) per well in 100 μL of medium in 96-well plates. When cells were attached (after 6 hours), medium was removed and replaced with dosing medium containing 10% charcoal stripped FBS.
A 5α-Androstan-17β-ol-3-one (DHT) stock solution was prepared at 1,000× in ethanol. Each ARE tested was prepared in DMSO. Dosing medium was prepared at the time of treatment by serial diluting stock solution into medium. Ethanol concentrations in media never exceeded 0.1%. […] Negative control wells contained 100 μL medium/well with 1 μL of ethanol/mL of medium and an appropriate amount of DMSO. Each plate also contained 1.0 nM DHT with an ARE or without an ARE as a positive control. Cells were incubated 24 hours at 37° C. without CO2.
as §1

With CC12CCC(=O)C=C1C[C@@H](SC(=O)CC13CC4CC(CC(C4)C1)C3)C1C2CCC2(C)C1CC[C@@]21CCC(=O)O1 (some centres unmarked) [SPG-003] the “Cell Viability” value ([1]; 0.62 μM) was 92.16 ± 1.30, the “Cell Viability” value ([1]; 1.85 μM) was 73.46 ± 1.11 and the “Cell Viability” value ([1]; 5.56 μM) was 66.12 ± 3.09. The “Cell Viability” value ([1]; 16.67 μM) was 55.11 ± 0.16, the “Cell Viability” value ([1]; 50 μM) was 38.67 ± 2.25 and the IC50 (androgen receptor (AR) [2]; MDA-kb2, 0.1 nM DHT, 24 hours) was 789 nM. The IC90 (androgen receptor (AR) [2]; MDA-kb2, 0.1 nM DHT, 24 hours) was 2710 nM, the “Maximum Inhibition” value (androgen receptor (AR) [2]; MDA-kb2, 0.1 nM DHT, 24 hours) was 95% and the “dose-dependent inhibition of AR reporter gene activity (in words)” value (androgen receptor (AR) [2]; MDA-kb2, reduced DHT levels (0.1 nM)) was “dose-dependent inhibition”. For the same compound, the Cell Viability ([3]; MDA-kb2, 6 μM) was 80%, the Cell Viability ([3]; MDA-kb2, 10 μM) was 50% and the solubility ([4]; solvent system (1) Transcutol: Ethanol: Isopropyl myristate (IPM) 2:3:5 (v:v), target 1% by weight) was “good solubility”. For the same compound, the solubility ([4]; solvent system (2) Transcutol: Ethanol 3:7 (v:v), target 1% by weight) was “good solubility”, the solubility ([4]; solvent system (3) Ethanol: Propylene Glycol 1:1 (v:v), after extensive sonication) was “not soluble” and the solubility ([4]; solvent system (4) Ethanol:H2O 7:3 (v:v), after extensive sonication) was “not soluble”. The solubility ([4]; solvent system (5) IPM, after extensive sonication) was “not soluble”, the solubility ([4]; solvent system (6) Ethanol:Tween 80: Cetyl Alcohol 90:5:5 (w:w)) was “good solubility” and the solubility ([4]; solvent system (7) CCT: Tween 80: Cetyl Alcohol 90:5:5 (w:w), after extensive sonication) was “not soluble”. The solubility ([4]; solvent system (8) CCT: Isopropanol 1:1 (v: v)) was “good solubility”, the “Cell Viability” value ([5]; 0.1 μM) was 93% and the “Cell Viability” value ([5]; 1 μM) was 93%. For the same compound, the “Cell Viability” value ([5]; 3 μM) was 94%, the “Cell Viability” value ([5]; 10 μM) was 93% and the “AR reporter gene activity reduction” value (androgen receptor (AR) [6]; Washout Period 0 days) was 89 ± 1.0%. For the same compound, the “AR reporter gene activity reduction” value (androgen receptor (AR) [6]; Washout Period 2 days) was 64 ± 0.3%, the “Cell Viability” value ([7]; 0.1 μM) was 98% and the “Cell Viability” value ([7]; 1 μM) was 99%. For the same compound, the “Cell Viability” value ([7]; 3 μM) was 98% and the “Cell Viability” value ([7]; 10 μM) was 98%.
